Consider eleven molecules from PubChem BioAssay AID1338 (Columbia University Molecular Screening Center, 2008).

By inhibition is commonly meant the percentage by which the read-out fell short of the control.

Active and inactive are the calls of the source.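 Rule for the calls: active = normalized inhibition above 25%; inactive = normalized inhibition below 25%.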

For the test, the target named is Tyrosine-protein phosphatase non-receptor type 22 (Homo sapiens) (UniProt Q9Y2R2). The test can be described thus: PTPN22 enzyme inhibition, catalase-containing buffer – biochemical, catalase added, Infinite200, 384-well (AID 1338). The following applies: Recombinant LYP, DiFMUP fluorescence, with catalase; at 10 µM; stronger effect = higher value.
Tyrosine-protein phosphatase non-receptor type 22 (Homo sapiens), sequence (Q9Y2R2 whole entry, looked up): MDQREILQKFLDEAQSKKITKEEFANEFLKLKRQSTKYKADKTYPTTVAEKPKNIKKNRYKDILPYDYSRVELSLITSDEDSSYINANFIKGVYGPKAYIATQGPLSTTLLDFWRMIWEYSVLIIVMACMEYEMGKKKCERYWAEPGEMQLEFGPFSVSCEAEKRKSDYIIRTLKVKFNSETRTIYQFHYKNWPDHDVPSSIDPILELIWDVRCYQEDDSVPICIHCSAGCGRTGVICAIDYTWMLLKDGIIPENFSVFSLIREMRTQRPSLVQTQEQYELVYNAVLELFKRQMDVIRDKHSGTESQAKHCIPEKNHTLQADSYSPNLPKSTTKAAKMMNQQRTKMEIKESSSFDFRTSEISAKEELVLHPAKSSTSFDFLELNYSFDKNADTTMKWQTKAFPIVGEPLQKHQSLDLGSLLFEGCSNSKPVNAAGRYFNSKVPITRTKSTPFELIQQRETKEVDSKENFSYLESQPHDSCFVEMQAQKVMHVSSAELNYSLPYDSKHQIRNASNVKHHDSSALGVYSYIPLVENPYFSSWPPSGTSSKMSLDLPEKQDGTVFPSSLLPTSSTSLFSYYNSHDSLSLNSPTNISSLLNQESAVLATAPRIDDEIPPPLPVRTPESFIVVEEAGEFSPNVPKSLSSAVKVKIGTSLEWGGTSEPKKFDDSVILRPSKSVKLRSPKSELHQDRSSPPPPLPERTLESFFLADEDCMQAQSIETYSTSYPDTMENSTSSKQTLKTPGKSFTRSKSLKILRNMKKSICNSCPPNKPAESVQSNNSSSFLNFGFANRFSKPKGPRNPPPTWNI
For the molecule `CC(C)C(C(=O)O)N1C(=O)/C(=C/C=C/c2ccco2)SC1=S` (stereo unspecified), the inhibition was 13% (inactive). With `CC(C(=O)O)N1C(=O)/C(=C/C=C/c2ccco2)SC1=S` (stereo unspecified), the inhibition is 2.7% (inactive). Consider `Nc1c(C(=O)Nc2nc3ccccc3s2)sc2nc(-c3cccs3)ccc12`, for which the inhibition was 32.2%.

As to `COc1cccc(OC)c1-c1nn2c(-c3cc(-c4ccccc4)n[nH]3)nnc2s1`, the inhibition was 54.4%. Take `Cn1nc(-c2ccc(Cl)cc2)nc2c(=O)n(C)c(=O)nc1-2`: the inhibition is 34.1%. On to `O=[N+]([O-])c1cc(/C=N\Nc2nccs2)ccc1O`, for which the inhibition is 4% (inactive). Then `O=C(c1cccs1)c1no[n+]([O-])c1C(=O)c1cccs1`, with 51.5%; and `O=C(O)CCCN1C(=O)/C(=C/c2ccc(-c3nc4ccccc4s3)o2)SC1=S`, with 36.5%.

In the case of `O=C(O)CCN1C(=O)/C(=C/c2ccc(-c3nc4ccccc4s3)o2)SC1=S`, the inhibition is 48.9%. For the molecule `COc1cc(-c2nnc(SCc3cc(=O)oc4cc(O)c(O)cc34)o2)cc(OC)c1OC`, the inhibition was 49%. Turning to `Cc1ccc(NC(=O)CN2C(=O)S/C(=C\c3cccn3-c3cccc(C(=O)O)c3)C2=O)c(C)c1`, the inhibition was 48.2%.
